Active and inactive are the calls of the source. The rule behind the calls is not given here.
Key:
[1] = tested on: Trypanosoma brucei rhodesiense; assay: Antitrypanosomal activity against Trypanosoma brucei rhodesiense STIB900 infected in NMRI mouse assessed as survival days at 5 mg/kg, ip; type: functional; details: route intraperitoneal
[2] = tested on: Trypanosoma brucei rhodesiense; assay: Antitrypanosomal activity against Trypanosoma brucei rhodesiense STIB900 infected in NMRI mouse assessed as survival at 5 mg/kg, ip; type: functional, organism-based; set-up: dose 5 mg/kg
[3] = tested on: Trypanosoma brucei rhodesiense; assay: Antitrypanosomal activity against Trypanosoma brucei rhodesiense STIB900; type: functional, organism-based
Plasmodium falciparum = assay: Antiplasmodial activity against Plasmodium falciparum K1; type: functional, organism-based
[4] = tested on: Trypanosoma brucei rhodesiense; details: dose 20 mg/kg; route intraperitoneal
Description: Antitrypanosomal activity against Trypanosoma brucei rhodesiense STIB900 infected in NMRI mouse assessed as survival days at 20 mg/kg, ip

[5] = tested on: Trypanosoma brucei rhodesiense; assay: Antitrypanosomal activity against Trypanosoma brucei rhodesiense STIB900 infected in NMRI mouse assessed as survival at 20 mg/kg, ip; type: functional, organism-based; set-up: dose 20 mg/kg

Row | SMILES | Survival [1] | Activity [2] | IC50 [3] | IC50 (Plasmodium falciparum) | Survival [4] | Activity [5]
1 | N=C(N)c1ccc(-c2ccc(-c3ccc(C(=N)N)nc3)cc2)cn1 | >51.5 days | inactive |  |  |  | 
2 | N=C(N)c1ccc(-c2ccc(-c3ccc(C(=N)N)cc3)cc2)cc1 |  |  | 5 nM | 1.4 nM | >47.75 days | 
3 | N=C(N)c1ccc(-c2cnc(-c3ccc(C(=N)N)cc3)cn2)cc1 | 36.5 days | inactive | 18 nM | 0.4 nM |  | 
4 | N=C(N)c1ccc(-c2ccc(-c3cnc(C(=N)N)cn3)cn2)cc1 | >31.75 days |  |  | 5.7 nM |  | 
5 | N=C(N)c1ncc(-c2ccc(-c3cnc(C(=N)N)nc3)cc2)cn1 | >43.25 days |  | 6 nM | 0.6 nM |  | 
6 | N=C(N)c1ccc(-c2ccc(-c3ccc(C(=N)N)cn3)cc2)nc1 | >60 days |  | 47 nM | 10.1 nM |  | 
7 | N=C(N)c1ccc(-c2ccc(-c3ccc(C(=N)N)cc3)nn2)cc1 | >49.25 days |  | 14 nM | 1.3 nM |  | 
8 | N=C(N)c1ccc(-c2ccc(-c3ccc(C(=N)N)nc3)cn2)cc1 | >60 days |  | 6 nM | 1.1 nM |  | 
9 | N=C(N)c1ccc(-c2ccc(-c3ccc(C(=N)N)cn3)cn2)cc1 | >60 days |  |  | 2.5 nM |  | 
10 | N=C(N)c1ccc(-c2ccc(-c3cnc(C(=N)N)nc3)cn2)cc1 | >43.25 days | inactive | 12 nM | 1.5 nM |  | 
11 | N=C(N)c1ccc(-c2ccc(-c3ccc(C(=N)N)cc3)o2)cc1 [FURAMIDINE] | >46 days |  |  |  | >57.75 days | 
12 | N=C(N)c1ccc(-c2ccc(-c3ccc(C(=N)N)cc3)nc2)cc1 | >42 days |  | 2 nM | 10 nM |  | 
13 | N=C(N)c1ccc(-c2ccc(-c3cnc(C(=N)N)nc3)cc2)cc1 | >46.25 days |  | 4 nM | 0.6 nM |  | 
14 | N=C(N)c1ccc(-c2ccc(-c3ccc(C(=N)N)cn3)cc2)cc1 | >56 days |  |  | 1.3 nM |  | 
15 | N=C(N)c1ccc(-c2ccc(-c3ccc(C(=N)N)cn3)o2)cc1 | >54.5 days |  |  |  | >60 days | Active
16 | N=C(N)c1ccc(-c2cnc(-c3ccc(C(=N)N)cc3)nc2)cc1 | 23.5 days | inactive |  |  |  | 
17 | N=C(N)c1ccc(-c2ccc(-c3ccc(C(=N)N)nc3)cc2)cc1 | >48.75 days | inactive |  |  |  | 

Reference: ChEMBL document CHEMBL1152566, “Synthesis and activity of azaterphenyl diamidines against Trypanosoma brucei rhodesiense and Plasmodium falciparum” (Bioorg Med Chem, 2009)
